{"source": "paper PMC12044326", "about": "(Clinical Pharmacology in Drug Development, 2025)", "key": {"CYP3A4": {"system": "CYP3A4", "design": "method as in PMID 15242978, PMID 9929500", "conditions": "cited from earlier work"}, "in vitro": {"experiment": "in vitro", "conditions": "human, Caco-2", "method": "Caco-2 cells were obtained from American Type Culture Collection. Prior to the experiments,\nthe cells were seeded on 55 cm2 bottom culture dishes (Corning). The cells were cultured at\n37°C in a humidified CO2 (5%) incubator and routinely passaged about once a week. Caco-2\ncultured in the medium at 37°C in a humidified CO2 (5%) incubator for 23 days to prepare cell\nThe medium was changed 4 days after seeding and then changed every 2 or 3 days\nthereafter. Before the experiment, the integrity of the Caco-2 cell monolayer was checked by\nmeasuring the trans-epithelial electrical resistance (TEER) value. The TEER values of cell\nIn the transport experiments, the medium of top side of the cells (apical side) and basal\nside of the cells (basal side) were replaced with the DMSO-HBSS solution, the inhibitor-HBSS\ncontrol), or the test solutions (digoxin and mannitol as substrates). The volumes of the replaced\nsolutions were 300 μL for the apical side and 1 mL for the basal side. The DMSO-HBSS […]\nof the solution in each basal side (receiver side) were collected and measured for the\nradioactivity using an LSC. […]\ncollected and measured for the radioactivity using an LSC. […]\nside (receiver side) were collected and measured for the radioactivity using an LSC. […]\nin each apical side and each basal side (donor side) were collected and measured for the\nradioactivity using an LSC."}}, "data": [{"smiles": "CCC(C)n1ncn(-c2ccc(N3CCN(c4ccc(OCC5COC(Cn6cncn6)(c6ccc(Cl)cc6Cl)O5)cc4)CC3)cc2)c1=O", "note": "(centres unmarked) [itraconazole]", "values": [{"measurement": "CYP3A4 inhibitor potency over ketoconazole", "setting": "CYP3A4", "value": "~10", "unit": "fold"}]}, {"smiles": "CC(C)NCC(O)COc1cccc2ccccc12", "note": "(centres unmarked) [propranolol, reference compound]", "values": [{"measurement": "Papp", "setting": "in vitro", "value": 27.8, "unit": "×10⁻⁶ cm/s"}]}]}
